molecular target: Cap-dependent endonuclease (CEN); RNP fraction containing PB1•PB2•PA complex (Influenza A virus, UniProt P15659); test: Measurement of cap-dependent endonuclease (CEN) inhibitory activity; assay type: biochemical, influenza A/WSN/33 virus; conditions: RNP enzyme from A/WSN/33 virus, capped Cy3/BHQ2-labelled 30mer RNA substrate, 60 minutes at room temperature; read-out: CEN IC50

Row | Structure (SMILES) | IC50 [nM]
1 | O=C(O)c1cn(Cc2ccccc2-c2ccccc2)cc(O)c1=O [Example 10] | 219
2 | O=C(O)c1cn(CC2CCCC2)cc(O)c1=O [Example 18] | 845
3 | CC(=O)c1ccc(-c2ccccc2Cn2cc(O)c(=O)c(C(=O)O)c2)cc1 [Example 22] | 217
4 | COc1ncc(-c2ccccc2Cn2cc(O)c(=O)c(C(=O)O)c2)cn1 [Example 46] | 325
5 | O=C(O)c1cn(Cc2ccccc2-c2ccc(NCC3CCCCC3)nc2)cc(O)c1=O [Example 52] | 459
6 | O=C(O)c1cn(C[C@@H]2CCCN2c2ccccc2)cc(O)c1=O [Example 57] | 426
7 | O=C(O)c1cn(CC2(c3ccccc3)CCCC2)cc(O)c1=O [Example 112] | 61
8 | N#Cc1ccccc1CN1CCCCC1Cn1cc(O)c(=O)c(C(=O)O)c1 (stereo not drawn) [Example 116] | 221
9 | O=C(O)c1cn(CC2CCCCN2C(=O)OCc2ccccc2F)cc(O)c1=O (stereo not drawn) [Example 127] | 313
10 | O=C(O)c1cn(CC2(c3cccc(C(F)(F)F)c3)CCCC2)cc(O)c1=O [Example 167] | 12
11 | O=C(O)c1cn(CC2(c3ccc4c(c3)OCO4)CCCC2)cc(O)c1=O [Example 171] | 16
12 | O=C(O)c1cn(CC2(c3nc4ccccc4s3)CCCC2)cc(O)c1=O [Example 173] | 47
13 | O=C(O)c1cn(CC2(c3ccccn3)CCCC2)cc(O)c1=O [Example 177] | 110
14 | O=C(O)c1cn(CC2(c3cccc4ccccc34)CCCC2)cc(O)c1=O [Example 178] | 28
15 | O=C(O)c1cn(CC2(c3ccccc3)Cc3ccccc3C2)cc(O)c1=O [Example 182] | 278
16 | O=C(O)c1cn(CC2(c3ccccc3)CCOCC2)cc(O)c1=O [Example 183] | 177
17 | O=C(O)c1cn(CC2(n3ccc4cccnc43)CCCC2)cc(O)c1=O [Example 185] | 5
18 | O=C(O)c1cn(CC2(n3ccc4ccccc43)CCCC2)cc(O)c1=O [Example 186] | 35
19 | O=C(NS(=O)(=O)C1CC1)c1cn(Cc2ccccc2-c2ccccc2)cc(O)c1=O [Example 195] | 677
20 | CCCCS(=O)(=O)NC(=O)c1cn(Cc2ccccc2-c2ccccc2)cc(O)c1=O [Example 197] | 531
21 | O=c1c(O)cn(Cc2ccccc2-c2ccc(F)c(Cl)c2)cc1O [Example 222] | 513

same assay, conditions: statement in text following Table 36; same CEN assay; read-out: IC50 (CEN)

Row | Structure (SMILES) | IC50 [nM]
22 | O=C(O)c1cn(Cc2cccn2-c2ccccc2)cc(O)c1=O [Example 226] | ≤ 1000
23 | CC(C)(Cn1cc(O)c(=O)c(C(=O)O)c1)c1ccccc1 [Example 227] | ≤ 1000
24 | O=C(O)c1cn(CC2(C(=O)c3ccccc3)CCCC2)cc(O)c1=O [Example 231] | ≤ 1000
25 | O=C(O)c1cn(CC2(C(=O)Nc3ccccc3)CCCC2)cc(O)c1=O [Example 232] | ≤ 1000
26 | O=c1c(O)cn(CC2(c3cccc(F)c3)CCCC2)cc1-c1nnn[nH]1 [Example 233] | ≤ 1000
27 | O=C(O)c1cn(CC2(c3cccc(N4CCCC4=O)c3)CCCC2)cc(O)c1=O [Example 234] | ≤ 1000
28 | O=C(O)c1cn(CC2(c3cccc(N4CCCCC4=O)c3)CCCC2)cc(O)c1=O [Example 235] | ≤ 1000
29 | O=C(O)c1cn(CC2(c3cccc(N4CCCS4(=O)=O)c3)CCCC2)cc(O)c1=O [Example 236] | ≤ 1000
30 | O=C(O)c1cn(CC2(c3ccnc(-n4cccn4)c3)CCCC2)cc(O)c1=O [Example 238] | ≤ 1000
31 | O=C(O)c1cn(CC2(c3ccnc(NCC4CCCCC4)c3)CCCC2)cc(O)c1=O [Example 239] | ≤ 1000
32 | O=C(O)c1cn(CC2(n3ccc4cc(Cl)cnc43)CCCC2)cc(O)c1=O [Example 240] | ≤ 1000
33 | Cn1cc(C2(Cn3cc(O)c(=O)c(C(=O)O)c3)CCCC2)c2ncccc21 [Example 242] | ≤ 1000
34 | O=C(O)c1cn(CC2(n3cc(C(F)(F)F)c4cccnc43)CCCC2)cc(O)c1=O [Example 243] | ≤ 1000
35 | Cn1cc(C2(Cn3cc(O)c(=O)c(C(=O)O)c3)CCCC2)c2ccccc21 [Example 244] | ≤ 1000
36 | Cn1cc(C2(Cn3cc(O)c(=O)c(C(=O)NS(C)(=O)=O)c3)CCCC2)c2ccccc21 [Example 246] | ≤ 1000
